{
  "source": "patent US10869931B2",
  "about": "“Polyethylene glycol-modified angiogenesis inhibitor HM-1 and application thereof” (NANJING ANJI BIOLOGICAL TECHNOLOGY CO.,LTD, priority 2016, dated 2020)",
  "key": {"[1]": {"test_system": "carrageenan-induced toe swelling in SD rats", "test": "Carrageenan-induced acute toe swelling in rats", "type": "in vivo, rat", "design": "Swelling: unit not given here", "method": "SD rats were divided into blank model group, dexamethasone-positive group (5 mg/kg) and mPEG-HM-1 test group. The drug was administered once a day, and the model group was given the same volume of normal saline for 3 days and fed normally. At the first hour after the last administration, 0.1 mL of 1% carrageenan was injected subcutaneously into the right hind paw of the rats to induce inflammation. The volume of the foot was measured at 1 h, 3 h, 5 h, and 7 h after inflammation. The degree of swelling of the foot was calculated according to the following formula: the degree of swelling of the foot (mL)=the volume of the foot after inflammation−the volume before inflammation. Record the number of milliliters of spilled liquid (method: use the ballpoint pen to circle as the measurement mark at the protruding point of the right joint, and then put the right hind foot of each mouse into the volume measuring device, so that the hind limb is exposed outside the cylinder, and the depth of the immersion was determined by coinciding the circle with the liquid surface. After the foot enters the liquid, the liquid level rises, and the volume of the overflow liquid is the volume of the right hind foot of the rat, and the normal volume of the right hind foot of each mouse is sequentially determined)."}, "[2]": {"test_system": "Lung cancer tumor cells", "test": "MTT proliferation inhibition, lung cancer cells", "type": "cell-based, human", "design": "concentration or dose not given beside the values", "settings": "48 h", "method": "The activity of mPEG-HM-1 to inhibit the growth of various tumor cells was examined by MTT assay. The tumor cells were cultured to a concentration of 90% or more in a 37° C., 5% CO2 incubator and collected by trypsinization. The cells were resuspended in the culture medium and counted under a microscope to adjust the cell concentration to 2×10^4 cells/mL, the cell suspension was inoculated into a 96-well plate at 100 μL/well and incubated overnight at 37° C. in a 5% CO2 incubator. mPEG-HM-1 was diluted with the culture solution to each predetermined concentration. Docetaxel is diluted to the final concentration with the culture medium. After the cells were fully attached, each dilution was added to a 96-well plate (100 μL/well). The mPEG-HM-1 dilution was added as a drug-administered group, and docetaxel was added as a positive control group, and a culture solution without any drug was used as a negative control group. Incubate for 48 h at 37° C. in a 5% CO2 incubator. 5 mg/mL of MTT was added to a 96-well plate at 20 μL per well, and incubation was continued for 4 hours. The medium was aspirated, dissolved in 150 μL of DMSO per well, and gently mixed by shaking for 10 min. The absorbance was measured at a measurement wavelength of 570 nm and a reference wavelength of 630 nm using a microplate reader, and the rate of growth inhibition (proliferation inhibition, PI) was calculated. The formula is as follows: PI (%)=1−administration group/negative group\nThe test was repeated 3 times independently, and the results obtained by the test were expressed as mean±SD, and the test results are shown in Table 15 to Table 18."}, "[3]": {"test_system": "human retinal vascular endothelial cells (HRCEC)", "test": "MTT proliferation of human retinal vascular endothelial cells", "type": "cell-based", "settings": "48 h; for Inhibition rate: HRCEC proliferation; for A570 nm-A630 nm: HRCEC; for A570 nm-A630 nm / inhibition rate of HRCEC proliferation: MTT", "method": "The activity of the angiogenesis inhibitor polypeptide to inhibit proliferation of human retinal vascular endothelial cells was examined by MTT assay. HRCEC cells were cultured in a 37° C., 5% CO2 incubator to a density of 90% or more, and collected by trypsinization. The cells were resuspended in the culture medium and counted under a microscope to adjust the cell concentration to 3.0×10^4 cells/mL. The cell suspension was inoculated into a 96-well plate at 100 μL per well and cultured overnight at 37° C. in a 5% CO2 incubator. After the cells were completely adhered, the angiogenesis inhibitor polypeptide was added as the administration group, and Avastin was used as the positive control group, and the culture media without any drug was used as a blank control group, and the culture media were diluted to each predetermined concentration. Each dilution was separately added to a 96-well plate at 100 μL per well and incubated for 48 h at 37° C. in a 5% CO2 incubator. 20 μL of 5 mg/mL MTT was added to each well of a 96-well plate and incubation was continued for 4 h. The medium was aspirated and dissolved in 100 μL of DMSO per well. […] The formula is as follows: PI (%)=1−administration group/negative group\nThe test was repeated 3 times independently. The results obtained by the test were expressed as mean±SD, and a statistical T test was performed. *P<0.05 was a significant difference, and **P<0.01 was a very significant difference."}, "[4]": {"test_system": "corneal neovascularization in BALB/c mice", "test": "Alkali-burn corneal neovascularization in BALB/c mice (CD31 microvessel density)", "type": "in vivo, mouse", "settings": "for Inhibition rate: corneal microvessel density vs control; for Inhibition rate / MVD: day 14 after alkali burn, intravitreal once a day for 1 week; for MVD: microvessel density (CD31) of cornea", "source_text": "(1) Preparation of corneal neovascularization model induced by alkali burn in BALB/c mice: mice were randomly grouped and labeled as mPEG-HM-1 experimental group and control group, 5 […] in each group, respectively, was given mPEG-HM-1 and saline by Intravitreal injection after alkali burn, once a day for 1 week. The inflammatory reaction and neovascularization of the cornea were observed under slit lamp microscope at 1 d, 7 d, and 14 d after alkali burn. On the 14th day after alkali burn, the corneal neovascularization was recorded under the slit lamp microscope in the anterior segment of the eye. All the mice were euthanized by cervical dislocation and the eyeballs were removed, washed with saline to rid of blood, and was fixed in 4% paraformaldehyde for 1.5 h, dehydrated in PBS containing 30% sucrose overnight, embedded in OCT frozen section embedding agent, stored in −80° C. refrigerator, frozen section 8 μm, and underwent immunocytochemical detection of CD31 expression. (2) Quantitative measurement of corneal tissue microvessel density: Microvessel density (MVD) is an indicator for evaluating angiogenesis. Vascular endothelial cells were labeled with anti-CD31 antibody by immunohistochemistry, and the number of microvessels per unit area was counted to measure the degree of neovascularization. Standards for counting microvessels: Microscopically, the endothelial cells or cell clusters that are clearly demarcated from adjacent tissues in the corneal tissue and stained brown or brown are counted in the neovascularization. The number of new blood vessels in the whole section was counted under a 10×20 microscope. After the corneal tissue was photographed, the entire corneal tissue area was calculated by image processing software Image J, and the neovascular density of the whole section was determined. The test was repeated 3 times independently. The results obtained by the test were expressed as mean±SD, and a statistical T test was performed. *P<0.05 was a significant difference, and **P<0.01 was a very significant difference."}},
  "note": "Values joined by “and” are separate entries in the source; they are usually repeats but may differ in a detail not shown here. Equal values may be shown once. Marks after values point to notes of the source that are not given here. Where no end group is shown, it is not given here.",
  "data": [
    {"substance": "mPEG-ALD20k-Arg-Gly-Ala-Asp-Arg-Ala-Gly-Gly-Gly-Gly-Arg-Gly-Asp ({mPEG‑ALD 20 kDa}-RGADRAGGGGRGD) [mPEG-ALD20k-HM-1]", "values": [
      {"measurement": "Swelling", "setting": "[1]; 40 mg/kg once a day for 3 days, 1 h after carrageenan", "value": "0.27 ± 0.13"},
      {"measurement": "Swelling", "setting": "[1]; 40 mg/kg once a day for 3 days, 3 h after carrageenan", "value": "0.34 ± 0.16"},
      {"measurement": "Swelling", "setting": "[1]; 40 mg/kg once a day for 3 days, 5 h after carrageenan", "value": "0.41 ± 0.14"},
      {"measurement": "Swelling", "setting": "[1]; 40 mg/kg once a day for 3 days, 7 h after carrageenan", "value": "0.35 ± 0.13"},
      {"measurement": "Swelling", "setting": "[1]; 80 mg/kg once a day for 3 days, 1 h after carrageenan", "value": "0.25 ± 0.09"},
      {"measurement": "Swelling", "setting": "[1]; 80 mg/kg once a day for 3 days, 3 h after carrageenan", "value": "0.32 ± 0.11"},
      {"measurement": "Swelling", "setting": "[1]; 80 mg/kg once a day for 3 days, 5 h after carrageenan", "value": "0.40 ± 0.15"},
      {"measurement": "Swelling", "setting": "[1]; 80 mg/kg once a day for 3 days, 7 h after carrageenan", "value": "0.32 ± 0.16"},
      {"measurement": "rate of growth inhibition", "setting": "[2]", "value": "66.38 ± 17.16", "unit": "%"},
      {"measurement": "Inhibition rate", "setting": "[3]; 60 μg/mL", "value": 46.21, "unit": "%*"},
      {"measurement": "A570 nm-A630 nm", "setting": "[3]; 60 μg/mL", "value": "0.7050 ± 0.07965"},
      {"measurement": "Inhibition rate", "setting": "[3]; 80 μg/mL", "value": 55.90, "unit": "%**"},
      {"measurement": "A570 nm-A630 nm", "setting": "[3]; 80 μg/mL", "value": "0.5780 ± 0.06987"},
      {"measurement": "inhibition rate of HRCEC proliferation", "setting": "[3]; 100 μg/mL", "value": "68.15% and 69.12%"},
      {"measurement": "Inhibition rate", "setting": "[3]; 100 μg/mL", "value": 68.15, "unit": "%*"},
      {"measurement": "A570 nm-A630 nm", "setting": "[3]; 100 μg/mL", "value": "0.4175 ± 0.07301"},
      {"measurement": "Inhibition rate", "setting": "[4]", "value": 48.04, "unit": "%"},
      {"measurement": "MVD", "setting": "[4]", "value": "34.67 ± 6.953**"}
    ]},
    {"substance": "mPEG2-NHS5k-Arg-Gly-Ala-Asp-Arg-Ala-Gly-Gly-Gly-Gly-Arg-Gly-Asp ({mPEG2‑NHS 5 kDa}-RGADRAGGGGRGD) [mPEG2-NHS5k-HM-1]", "values": [
      {"measurement": "Swelling", "setting": "[1]; 10 mg/kg once a day for 3 days, 1 h after carrageenan", "value": "0.25 ± 0.13"},
      {"measurement": "Swelling", "setting": "[1]; 10 mg/kg once a day for 3 days, 3 h after carrageenan", "value": "0.36 ± 0.12"},
      {"measurement": "Swelling", "setting": "[1]; 10 mg/kg once a day for 3 days, 5 h after carrageenan", "value": "0.43 ± 0.17"},
      {"measurement": "Swelling", "setting": "[1]; 10 mg/kg once a day for 3 days, 7 h after carrageenan", "value": "0.31 ± 0.15"},
      {"measurement": "Swelling", "setting": "[1]; 20 mg/kg once a day for 3 days, 1 h after carrageenan", "value": "0.22 ± 0.11"},
      {"measurement": "Swelling", "setting": "[1]; 20 mg/kg once a day for 3 days, 3 h after carrageenan", "value": "0.32 ± 0.21"},
      {"measurement": "Swelling", "setting": "[1]; 20 mg/kg once a day for 3 days, 5 h after carrageenan", "value": "0.36 ± 0.12"},
      {"measurement": "Swelling", "setting": "[1]; 20 mg/kg once a day for 3 days, 7 h after carrageenan", "value": "0.32 ± 0.16"},
      {"measurement": "rate of growth inhibition", "setting": "[2]", "value": "42.83 ± 12.58", "unit": "%"},
      {"measurement": "Inhibition rate", "setting": "[3]; 20 μg/mL", "value": 40.94, "unit": "%*"},
      {"measurement": "A570 nm-A630 nm", "setting": "[3]; 20 μg/mL", "value": "0.7807 ± 0.09103"},
      {"measurement": "Inhibition rate", "setting": "[3]; 40 μg/mL", "value": 50.65, "unit": "%**"},
      {"measurement": "A570 nm-A630 nm", "setting": "[3]; 40 μg/mL", "value": "0.6523 ± 0.08688"},
      {"measurement": "Inhibition rate", "setting": "[3]; 60 μg/mL", "value": 61.08, "unit": "%*"},
      {"measurement": "A570 nm-A630 nm", "setting": "[3]; 60 μg/mL", "value": "0.5144 ± 0.08531"},
      {"measurement": "Inhibition rate", "setting": "[4]", "value": 40.13, "unit": "%"},
      {"measurement": "MVD", "setting": "[4]", "value": "39.95 ± 3.985*"}
    ]},
    {"substance": "mPEG-bALD10k-Arg-Gly-Ala-Asp-Arg-Ala-Gly-Gly-Gly-Gly-Arg-Gly-Asp ({mPEG‑bALD 10 kDa}-RGADRAGGGGRGD) [mPEG-bALD10k-HM-1]", "values": [
      {"measurement": "inhibition of carrageenan-induced toe swelling (in words)", "setting": "[1]; rats, 40 mg/kg, once a day for 3 days", "value": "most effective"},
      {"measurement": "rate of growth inhibition", "setting": "[2]", "value": "66.72 ± 14.42", "unit": "%"},
      {"measurement": "Inhibition rate", "setting": "[3]; 40 μg/mL", "value": 47.95, "unit": "%*"},
      {"measurement": "A570 nm-A630 nm", "setting": "[3]; 40 μg/mL", "value": "0.6931 ± 0.07754"},
      {"measurement": "Inhibition rate", "setting": "[3]; 60 μg/mL", "value": 57.43, "unit": "%**"},
      {"measurement": "A570 nm-A630 nm", "setting": "[3]; 60 μg/mL", "value": "0.5669 ± 0.07609"},
      {"measurement": "inhibition rate of HRCEC proliferation", "setting": "[3]; 80 μg/mL", "value": 75.19, "unit": "%"},
      {"measurement": "Inhibition rate", "setting": "[3]; 80 μg/mL", "value": 75.19, "unit": "%*"},
      {"measurement": "A570 nm-A630 nm", "setting": "[3]; 80 μg/mL", "value": "0.3304 ± 0.07354"},
      {"measurement": "inhibition rate of corneal neovascularization", "setting": "[4]; BALB/c mice, alkali burn, intravitreal injection once a day for 1 week", "value": 52.03, "unit": "%"},
      {"measurement": "Inhibition rate", "setting": "[4]", "value": 52.03, "unit": "%"},
      {"measurement": "MVD", "setting": "[4]", "value": "32.01 ± 5.738**"}
    ]}
  ]
}
